“And” between values parts separate entries of the source, which are not always exact repeats. Equal values may be shown once.
Columns and labels:
[1] = test system: Rhizoctonia solani (rice sheath blight); assay: microbe, parasite or virus in culture; type: cell-based; details: read-out: Inhibition rate (%)
[2] = test system: Colletotrichum lagenarium; assay: microbe, parasite or virus in culture; type: cell-based; details: Colletotrichum orbiculare, read-out: Inhibition rate (%)
[3] = test system: Alternaria solani; assay: microbe, parasite or virus in culture; type: cell-based; details: read-out: Inhibition rate (%)
[4] = test system: Bipolaris sorokiniana; assay: microbe, parasite or virus in culture; type: cell-based; details: read-out: Inhibition rate (%)
[5] = test system: Fusarium oxysporum; assay: microbe, parasite or virus in culture; type: cell-based; details: read-out: Inhibition rate (%)
[6] = test system: rabbit's eye; assay: Eye stimulation test; type: in vivo
Protocol: (§1) The toxicological indexes of the compound were tested following the standard GB15670-1995 “Toxicological test methods of pesticides for registration” by Tongji Medical College, Huazhong University of Science and Technology.

[7] = test system: Mice Polychromatic Erythrocytes; assay: Micronucleus Test of Mice Polychromatic Erythrocytes; type: in vivo
Protocol: as §1

[8] = molecular target: succinate-cytochrome C oxidase (SCO) (Sus scrofa, UniProt P24964); assay: Enzyme activity test, SCO; type: biochemical; details: azoxystrobin as control agent
Chain of succinate-cytochrome C oxidase (SCO) (P24964 whole entry): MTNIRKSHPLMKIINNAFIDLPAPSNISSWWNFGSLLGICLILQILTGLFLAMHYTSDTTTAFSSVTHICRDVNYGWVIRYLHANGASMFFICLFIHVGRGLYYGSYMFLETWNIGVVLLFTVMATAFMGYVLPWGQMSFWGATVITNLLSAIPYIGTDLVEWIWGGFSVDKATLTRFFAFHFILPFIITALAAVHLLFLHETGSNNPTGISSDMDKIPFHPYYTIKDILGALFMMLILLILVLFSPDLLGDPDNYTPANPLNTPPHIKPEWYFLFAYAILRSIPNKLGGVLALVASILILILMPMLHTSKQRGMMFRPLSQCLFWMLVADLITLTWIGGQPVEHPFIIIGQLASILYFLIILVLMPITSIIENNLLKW
Protocol: (§2) Take NADH oxidase (NOX), succinate-cytochrome C oxidase (SCO), and Complex III as target enzymes, the inhibitory activity of the compound of Formula (I) was tested.
^a NOX is generally used to detect an inhibitor of Complex I and Complex III; SCO is generally used to detect an inhibitor of Complex II and Complex III. Thus, an inhibitor of Complex III should have inhibitory activity on the two enzymes.

[9] = molecular target: T1, cytochrome bc1 complex of pig heart (Sus scrofa, UniProt P24964); assay: Enzyme activity test, Complex III; type: biochemical
T1 construct: The test target is cytochrome bc1 complex of pig heart; from tissue; host or cells: pig heart
T1 sequence (P24964 whole entry, one chain of several): as the sequence (P24964 whole entry) above
Protocol: as §2
^b The test target is cytochrome bc1 complex of pig heart.

[10] = test system: cucumber powdery mildew; assay: Field efficacy trial of emulsifier concentrate 1, cucumber powdery mildew; type: in vivo
Protocol: To a beaker (1000 mL), 50 g (100% basis) of the compound of Formula (I), 150 g of DMF, and 50 g of acetone were added and stirred for dissolution. To the solution, 25 g of pesticide emulsifier No. 500 and 50 g of Tween 80, 20 g of epoxidized soybean oil, and […] of toluene were added. Thus, the emulsifier concentrate 1 having 5 wt. % of the compound of Formula (I) was obtained and further packed.
On the basis of indoor activity evaluation, field efficacy trials of the compound of Formula (I) on cucumber downy mildew, cucumber powdery mildew, and melon powdery mildew were conducted.

[11] = test system: Cucumber gray mold (F-109); assay: In vivo micro-screening assay
Protocol: In Vivo Micro-Screening Assay
(§3) To further study the fungicidal spectrum of the compound of Formula (I), indoor in vivo micro-screening assay were carried out on cucumber gray mold, cucumber scab, cucumber sclerotinia rot, cucumber brown spot, pepper phytophthora blight, and rice sheath blight.
(§4) Medicament to be tested and medicament of control groups were prepared as needed in a sunny morning. Cucumber gray mold, cucumber scab, cucumber brown spot, cucumber sclerotinia rot, and rice sheath blight were medicated by spray, and after air dry, pathogens of cucumber scab and of cucumber brown spot were inoculated through spraying spore suspension respectively, pathogens of cucumber gray mold, of cucumber sclerotinia rot, and of rice sheath blight were inoculated through lawn foliage. Pepper phytophthora blight was medicated and inoculated by root-irrigation. Subsequently, all seedlings were cultured in wet environment.
(§5) After the disease of control groups were serious, spot area, disease index, and the diseased seedling rate were investigated to calculate the efficacy. Cucumber scab, cucumber brown spot, and pepper phytophthora blight were investigated by grading method. The spot extension area of cucumber gray mold and of rice sheath blight was investigated. The diseased seedling rate of cucumber sclerotinia rot was investigated. Disease index=Σ(amount of infected diseased leaves in a grade×relative value of the grade)×100/(total amount of leaves×9); Diseased seedling rate (%)=(total amount of seedlings−amount of diseased seedlings)/total amount of seedlings×100% Prevention and treatment effect (%)=(disease of control group−disease of experiment group)/disease of control group×100%

[12] = test system: Cucumber gray mold (SC504002); assay: In vivo micro-screening assay
Protocol: In Vivo Micro-Screening Assay
as §3, §4, §5

[13] = test system: Cucumber scab (strain HX); assay: In vivo micro-screening assay
Protocol: In Vivo Micro-Screening Assay
as §3
Cucumber scab strain: HX; cucumber brown spot strain: SDHGHB060509; cucumber sclerotinia rot strain: HGJH; pepper phytophthora blight strain: NSGP; and rice sheath blight strain: WK-1.
as §4, §5

CO/C=C(/C(=O)OC)c1ccccc1CSc1nc2cc(OC)ccc2s1 [Compound of Formula (I), (E)-methyl 3-methoxy-2-(2-((5-methoxy-benzothiazol-2-ylthio)methyl)phenyl)acrylate]
inhibition at 0.3 µg/mL ([1]; 0.3 mg/L): 42.7% | inhibition at 3 µg/mL ([1]; 3 mg/L): 62.1% | inhibition at 30 µg/mL ([1]; 30 mg/L): 68.9% | inhibition at 0.3 µg/mL ([2]; 0.3 mg/L): 42% | inhibition at 3 µg/mL ([2]; 3 mg/L): 44.2% | inhibition at 30 µg/mL ([2]; 30 mg/L): 50.7% | inhibition at 0.3 µg/mL ([3]; 0.3 mg/L): 32.4% | inhibition at 3 µg/mL ([3]; 3 mg/L): 39.2% | inhibition at 30 µg/mL ([3]; 30 mg/L): 43.9% | inhibition at 0.3 µg/mL ([4]; 0.3 mg/L): 18.8% | inhibition at 3 µg/mL ([4]; 3 mg/L): 40.6% | inhibition at 30 µg/mL ([4]; 30 mg/L): 43.8% | inhibition at 0.3 µg/mL ([5]; 0.3 mg/L): 29.4% | inhibition at 3 µg/mL ([5]; 3 mg/L): 36.1% | inhibition at 30 µg/mL ([5]; 30 mg/L): 43.7% | Eye stimulation [6]: Mild stimulation on rabbit's eye | Micronucleus Test of Mice Polychromatic Erythrocytes [7]: Negative | inhibitory activity on SCO compared with azoxystrobin [8]: much higher inhibitory activity | IC50 [9]: 4 nM | inhibitory activity on Complex III compared with azoxystrobin ([9]; azoxystrobin as control agent): much higher inhibitory activity | Disease index (%) ([10]; 12.5 mg/L, 7th day, Average): 5.9% | Efficacy (%) ([10]; 12.5 mg/L, 7th day, Average): 70.50% | Disease index (%) ([10]; 12.5 mg/L, 7th day, No. 1-4): 5.5% and 6.7% and 5.8% | Efficacy (%) ([10]; 12.5 mg/L, 7th day, No. 1-4): 71.05% and 70.59% and 71.54% and 69.71% | Disease index (%) ([10]; 12.5 mg/L, 14th day, Average): 6.8% | Efficacy (%) ([10]; 12.5 mg/L, 14th day, Average): 75.66% | Disease index (%) ([10]; 12.5 mg/L, 14th day, No. 1-4): 6.4% and 6.3% and 7.8% and 6.6% | Efficacy (%) ([10]; 12.5 mg/L, 14th day, No. 1-4): 74.80% and 76.40% and 75.73% and 76.45% | Disease index (%) ([10]; 12.5 mg/L, 21st day, Average): 12.7% | Efficacy (%) ([10]; 12.5 mg/L, 21st day, Average): 68.91% | Disease index (%) ([10]; 12.5 mg/L, 21st day, No. 1-4): 12.6% and 12.0% and 13.9% and 12.3% | Efficacy (%) ([10]; 12.5 mg/L, 21st day, No. 1-4): 67.88% and 68.34% and 69.40% and 70.29% | Disease index (%) ([10]; 25 mg/L, 7th day, Average): 3.9% | Efficacy (%) ([10]; 25 mg/L, 7th day, Average): 77.54% | Disease index (%) ([10]; 25 mg/L, 7th day, No. 1-4): 3.6% and 4.2% and 4.6% and 3.3% | Efficacy (%) ([10]; 25 mg/L, 7th day, No. 1-4): 78.48% and 76.74% and 77.57% and 77.35% | Disease index (%) ([10]; 25 mg/L, 14th day, Average): 4.0% | Efficacy (%) ([10]; 25 mg/L, 14th day, Average): 83.51% | Disease index (%) ([10]; 25 mg/L, 14th day, No. 1-4): 3.5% and 4.2% and 4.8% | Efficacy (%) ([10]; 25 mg/L, 14th day, No. 1-4): 84.35% and 83.71% and 82.85% and 83.59% | Disease index (%) ([10]; 25 mg/L, 21st day, Average): 7.0% | Efficacy (%) ([10]; 25 mg/L, 21st day, Average): 77.78% | Disease index (%) ([10]; 25 mg/L, 21st day, No. 1-4): 6.8% and 8.0% and 6.2% | Disease index (%) ([10]; 50 mg/L, 7th day, Average): 2.4% | Efficacy (%) ([10]; 50 mg/L, 7th day, Average): 85.63% | Disease index (%) ([10]; 50 mg/L, 7th day, No. 1-4): 2.1% and 2.4% and 2.8% and 2.2% | Efficacy (%) ([10]; 50 mg/L, 7th day, No. 1-4): 85.88% and 84.49% and 86.18% and 85.31% | Disease index (%) ([10]; 50 mg/L, 14th day, Average): 2.1% | Efficacy (%) ([10]; 50 mg/L, 14th day, Average): 90.99% | Disease index (%) ([10]; 50 mg/L, 14th day, No. 1-4): 2.1% and 1.8% and 2.7% and 1.9% | Efficacy (%) ([10]; 50 mg/L, 14th day, No. 1-4): 89.44% and 91.85% and 90.23% and 91.34% | Disease index (%) ([10]; 50 mg/L, 21st day, Average): 3.6% | Efficacy (%) ([10]; 50 mg/L, 21st day, Average): 89.45% | Disease index (%) ([10]; 50 mg/L, 21st day, No. 1-4): 3.2% and 3.0% and 4.4% and 3.7% | Efficacy (%) ([10]; 50 mg/L, 21st day, No. 1-4): 89.57% and 90.44% and 88.74% and 88.58% | Disease index (%) ([10]; 100 mg/L, 7th day, Average): 1.5% | Efficacy (%) ([10]; 100 mg/L, 7th day, Average): 91.67% | Disease index (%) ([10]; 100 mg/L, 7th day, No. 1-4): 1.7% and 1.2% and 1.9% | Efficacy (%) ([10]; 100 mg/L, 7th day, No. 1-4): 91.17% and 92.74% and 90.16% and 92.41% | Disease index (%) ([10]; 100 mg/L, 14th day, Average): 1.2% | Efficacy (%) ([10]; 100 mg/L, 14th day, Average): 95.23% | Disease index (%) ([10]; 100 mg/L, 14th day, No. 1-4): 0.9% and 1.3% and 1.4% and 1.0% | Efficacy (%) ([10]; 100 mg/L, 14th day, No. 1-4): 96.46% and 94.43% and 95.18% and 95.68% | Disease index (%) ([10]; 100 mg/L, 21st day, Average): 2.9% | Efficacy (%) ([10]; 100 mg/L, 21st day, Average): 91.52% | Disease index (%) ([10]; 100 mg/L, 21st day, No. 1-4): 3.3% and 2.6% and 2.8% and 3.0% | Efficacy (%) ([10]; 100 mg/L, 21st day, No. 1-4): 91.58% and 92.15% and 93.17% and 91.23% | Efficacy (%) ([11]; 100 mg/L): 92.19% | Spot area (mm^2) ([11]; 100 mg/L): 8.03 mm^2 | Efficacy (%) ([11]; 500 mg/L): 96.43% | Spot area (mm^2) ([11]; 500 mg/L): 3.67 mm^2 | prevention and treatment effect ([11]; cucumber gray mold, strains not distinguished): good prevention and treatment effect | Efficacy (%) ([12]; 100 mg/L): 88.71% | Spot area (mm^2) ([12]; 100 mg/L): 6.82 mm^2 | Efficacy (%) ([12]; 500 mg/L): 90.67% | Spot area (mm^2) ([12]; 500 mg/L): 5.64 mm^2 | prevention and treatment effect [13]: good prevention and treatment effect | Disease index ([13]; 100 mg/L): 0 | Efficacy (%) ([13]; 100 mg/L): 100.00% | Disease index ([13]; 500 mg/L): 0 | Efficacy (%) ([13]; 500 mg/L): 100.00%

Source: patent US9422254B2, “Methoxyacrylate-based fungicide and methods for preparing and using the same” (priority 2008, dated 2016)
